Columns and labels:
[1] = molecular target: T1, dopamine D2 receptor (D2R) (Homo sapiens, UniProt P14416); type: cell-based; conditions: FIG. 7B; single replicate, pilot experiment
T1 construct: linker […]; expressed in transfected cells; host or cells: HEK293

[2] = molecular target: D2R (Homo sapiens, UniProt P14416); conditions: cited from earlier work
[3] = molecular target: T2, δ opioid receptor (DOR) (Mus musculus, UniProt P32300); test: ClickArr assay: simultaneous recruitment of Barr1 (508 nm) and Barr2 (620 nm) to DOR in triply transfected HEK293 cells; type: cell-based
T2 construct: influenza signal peptide (N); linker […]; expressed in transfected cells; host or cells: HEK293

[4] = molecular target: T3, D2R-GSSGGGGSGGGGSGGGGSGGGG-CBGct(395-542) (human); test: split click beetle luciferase complementation (ClickArr), triply transfected cells, UNC9994 dose-response, single replicate
T3 construct: also called D2R-CBGct; dopamine D2 receptor
T3 chain: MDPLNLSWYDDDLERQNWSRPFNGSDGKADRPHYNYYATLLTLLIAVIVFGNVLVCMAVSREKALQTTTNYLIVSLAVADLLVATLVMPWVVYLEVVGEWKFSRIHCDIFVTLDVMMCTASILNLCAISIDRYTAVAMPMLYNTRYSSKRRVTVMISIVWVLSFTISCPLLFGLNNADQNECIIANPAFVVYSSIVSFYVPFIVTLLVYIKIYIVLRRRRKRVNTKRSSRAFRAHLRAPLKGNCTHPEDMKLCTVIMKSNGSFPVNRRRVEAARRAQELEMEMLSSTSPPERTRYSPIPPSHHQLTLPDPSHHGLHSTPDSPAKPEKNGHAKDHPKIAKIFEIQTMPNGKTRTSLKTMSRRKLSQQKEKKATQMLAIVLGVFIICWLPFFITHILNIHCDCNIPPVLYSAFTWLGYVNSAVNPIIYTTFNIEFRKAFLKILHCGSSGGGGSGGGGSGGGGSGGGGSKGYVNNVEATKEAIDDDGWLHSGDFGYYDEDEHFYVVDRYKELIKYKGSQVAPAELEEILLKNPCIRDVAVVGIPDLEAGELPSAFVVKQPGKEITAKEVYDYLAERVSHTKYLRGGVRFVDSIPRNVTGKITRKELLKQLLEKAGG

[5] = molecular target: T4, Signal peptide + FLAG tag-KOR-GSSGGGGSGGGGSGGGGSGGGG-CBGct(395-542) (mouse); test: split click beetle luciferase complementation (ClickArr), triply transfected cells, dynorphin17 dose-response, single replicate
T4 construct: also called kappa opioid receptor-CBGct; kappa opioid receptor
T4 chain: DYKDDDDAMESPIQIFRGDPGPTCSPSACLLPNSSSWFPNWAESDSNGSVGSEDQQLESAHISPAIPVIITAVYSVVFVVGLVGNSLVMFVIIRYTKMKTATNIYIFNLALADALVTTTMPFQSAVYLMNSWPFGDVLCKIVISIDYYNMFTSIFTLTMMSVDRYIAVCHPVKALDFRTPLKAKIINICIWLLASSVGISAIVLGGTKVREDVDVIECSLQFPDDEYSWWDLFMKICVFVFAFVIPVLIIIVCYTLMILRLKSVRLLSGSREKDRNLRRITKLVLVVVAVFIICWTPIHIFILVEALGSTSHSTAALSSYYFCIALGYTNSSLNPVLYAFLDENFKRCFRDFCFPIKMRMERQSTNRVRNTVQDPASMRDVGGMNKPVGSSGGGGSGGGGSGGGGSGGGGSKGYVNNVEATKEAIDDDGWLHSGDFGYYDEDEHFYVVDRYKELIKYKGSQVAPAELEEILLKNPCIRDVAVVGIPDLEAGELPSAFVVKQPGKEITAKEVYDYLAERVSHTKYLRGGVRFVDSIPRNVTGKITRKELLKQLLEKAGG

[6] = molecular target: T5, 3xHA-AGTR1(2-360)-GSSGGGGSGGGGSGGGGSGGGG-CBGct(395-542) (human); test: split click beetle luciferase complementation (ClickArr), triply transfected cells, angiotensin II dose-response, single replicate
T5 construct: also called AGTR1-CBGct; angiotensin type 1 receptor
T5 chain: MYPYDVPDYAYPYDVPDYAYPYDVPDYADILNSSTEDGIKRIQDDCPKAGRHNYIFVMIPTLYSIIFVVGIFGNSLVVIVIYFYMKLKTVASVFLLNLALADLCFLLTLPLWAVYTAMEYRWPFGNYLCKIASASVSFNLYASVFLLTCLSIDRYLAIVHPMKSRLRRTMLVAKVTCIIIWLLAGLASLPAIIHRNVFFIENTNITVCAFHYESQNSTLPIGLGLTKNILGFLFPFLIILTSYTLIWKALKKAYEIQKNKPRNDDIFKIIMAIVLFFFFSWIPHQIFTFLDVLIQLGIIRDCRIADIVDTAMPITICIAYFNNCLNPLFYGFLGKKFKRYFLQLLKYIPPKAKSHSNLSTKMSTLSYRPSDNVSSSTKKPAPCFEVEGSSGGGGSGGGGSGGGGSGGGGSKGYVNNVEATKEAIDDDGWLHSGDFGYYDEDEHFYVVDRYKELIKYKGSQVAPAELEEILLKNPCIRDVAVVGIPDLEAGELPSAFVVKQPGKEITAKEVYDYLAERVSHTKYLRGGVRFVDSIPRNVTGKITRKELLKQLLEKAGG

[7] = molecular target: T6, Signal peptide + FLAG tag-DOR-GSSGGGGSGGGGSGGGGSGGGG-CBGct(395-542) (mouse (Mus musculus)); test: split click beetle luciferase complementation (ClickArr), kinetic read at 508 nm, triply transfected HEK293 cells, 32 µM leu-enkephalin or TAN67
T6 construct: also called optimized DOR construct; DOR-CBGct
T6 chain: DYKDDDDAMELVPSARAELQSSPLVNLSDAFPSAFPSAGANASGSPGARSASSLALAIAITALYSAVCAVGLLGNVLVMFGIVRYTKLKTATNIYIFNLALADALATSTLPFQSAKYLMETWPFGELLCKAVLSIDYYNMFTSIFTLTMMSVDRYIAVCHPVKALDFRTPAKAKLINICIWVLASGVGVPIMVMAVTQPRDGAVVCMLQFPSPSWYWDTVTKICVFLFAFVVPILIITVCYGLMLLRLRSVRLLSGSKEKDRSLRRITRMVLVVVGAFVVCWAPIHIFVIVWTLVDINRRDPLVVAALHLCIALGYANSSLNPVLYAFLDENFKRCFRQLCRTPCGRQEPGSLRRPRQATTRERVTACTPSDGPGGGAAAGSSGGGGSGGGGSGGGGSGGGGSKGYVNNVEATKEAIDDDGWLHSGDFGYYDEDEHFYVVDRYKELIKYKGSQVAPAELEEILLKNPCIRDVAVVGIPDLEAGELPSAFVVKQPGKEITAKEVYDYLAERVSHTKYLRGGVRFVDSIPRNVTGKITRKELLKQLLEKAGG

T2 sequence (P32300 with tags, fused parts or gaps): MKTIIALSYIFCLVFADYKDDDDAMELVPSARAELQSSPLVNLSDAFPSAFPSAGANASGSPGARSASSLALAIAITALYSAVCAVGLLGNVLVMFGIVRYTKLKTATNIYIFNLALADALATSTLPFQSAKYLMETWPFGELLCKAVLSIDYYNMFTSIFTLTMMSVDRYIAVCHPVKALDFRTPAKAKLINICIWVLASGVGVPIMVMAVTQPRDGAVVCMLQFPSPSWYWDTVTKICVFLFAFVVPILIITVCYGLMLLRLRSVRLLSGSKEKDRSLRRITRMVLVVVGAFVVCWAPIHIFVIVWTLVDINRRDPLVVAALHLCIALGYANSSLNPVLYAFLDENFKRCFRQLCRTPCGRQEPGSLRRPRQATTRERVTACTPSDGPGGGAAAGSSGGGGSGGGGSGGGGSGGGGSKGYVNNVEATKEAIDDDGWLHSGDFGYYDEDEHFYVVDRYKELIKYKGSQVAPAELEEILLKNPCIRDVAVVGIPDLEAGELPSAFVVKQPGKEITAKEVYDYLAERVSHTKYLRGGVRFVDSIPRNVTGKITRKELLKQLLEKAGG

Cl.Clc1cccc(C2CCN(CCCOc3ccc4scnc4c3)CC2)c1Cl [UNC9994, 5-(3-(4-(2,3-dichlorophenyl)piperidin-1-yl)propoxy)benzo[d]thiazole hydrochloride]
Potency of β-arrestin curves relative to published value [1]: as potent or more potent than published values | Response: fold change in dopamine receptor:β-arrestin signal [1]: showed a response | EC50 ([2]; Allen et al., PNAS 108(45): 18488-18493 (2011), read-out: Published potency value): 448 nM | log10 of published potency value ([2]; log10 (M) of 448 nM, Allen et al. 2011): ~−6.3

Br.Br.CN1CC[C@@]2(c3cccc(O)c3)Cc3nc4ccccc4cc3C[C@@H]2C1 (racemic) [TAN67, (R*,S*)-(±)-2-Methyl-4aa-(3-hydroxyphenyl)-1,2,3,4,4a,5,12,12aa-octahydroquinolino[2,3,3-g]isoquinoline dihydrobromide]
Δ% efficacy Barr1-Barr2 compared to Leu-Enk ([3]; difference in maximum change in signal between arrestin isoforms, as a percentage of Leu-Enk, n=5-6 biological replicates, FIG. 5C): significant difference in efficacy | Kinetics of Barr1 vs Barr2 recruitment (normalized β-arrestin signal over time) ([3]; saturating concentration (32 μM), n=6 replicates, FIGS. 6A, 6B): Recruitment of Barr1 is much slower than Barr2

B1: CBGnt(1-415)-SGGGGSGGGGSGGGGSGGGGS-Barr1 (other)
chain: MVKREKNVIYGPEPLHPLEDLTAGEMLFRALRKHSHLPQALVDVVGDESLSYKEFFEATVLLAQSLHNCGYKMNDVVSICAENNTRFFIPVIAAWYIGMIVAPVNESYIPDELCKVMGISKPQIVFTTKNILNKVLEVQSRTNFIKRIIILDTVENIHGCESLPNFISRYSDGNIANFKPLHFDPVEQVAAILCSSGTTGLPKGVMQTHQNICVRLIHALDPRVGTQLIPGVTVLVYLPFFHAFGFSITLGYFMVGLRVIMFRRFDQEAFLKAIQDYEVRSVINVPSVILFLSKSPLVDKYDLSSLRELCCGAAPLAKEVAEVAAKRLNLPGIRCGFGLTESTSANIHSLGDEFKSGSLGRVTPLMAAKIADRETGKALGPNQVGELCIKGPMVSKGYVNNVEATKEAIDDDGWLSGGGGSGGGGSGGGGSGGGGSGDKGTRVFKKASPNGKLTVYLGKRDFVDHIDLVDPVDGVVLVDPEYLKERRVYVTLTCAFRYGREDLDVLGLTFRKDLFVANVQSFPPAPEDKKPLTRLQERLIKKLGEHAYPFTFEIPPNLPCSVTLQPGPEDTGKACGVDYEVKAFCAENLEEKIHKRNSVRLVIRKVQYAPERPGPQPTAETTRQFLMSDKPLHLEASLDKEIYYHGEPISVNVHVTNNTNKTVKKIKISVRQYADICLFNTAQYKCPVAMEEADDTVAPSSTFCKVYTLTPFLANNREKRGLALDGKLKHEDTNLASSTLLREGANREILGIIVSYKVKVKLVVSRGGDVAVELPFTLMHPKPKEEPPHREVPENETPVDTNLIELDTNDDDIVFEDFARQRLKGMKDDKEEEEDGTGSPQLNNR
notes: also called optimized Barr1 construct; CBGnt-Barr1
binding result [4]: binds | binding result [5]: binds | binding result [6]: binds | binding result [7]: binds

Source: patent publication US20220326229A1, “ASSAY FOR REAL-TIME SIMULTANEOUS RECRUITMENT OF ARRESTIN ISOFORMS TO G PROTEIN-COUPLED RECEPTORS” (Purdue Research Foundation, priority 2021, published 2022)
